Entries after “also recorded” stand apart in the source; their conditions may differ. One block for each compound: values may come before it.
How the values were obtained:
[1] = Stability assessment: 1:1 mixture of Form α and anhydrous Form A stirred in tetrahydrofuran, solid tested by XRPD; format: physicochemical; settings: 25° C. and 50° C.
Method: Form α of the present disclosure and anhydrous Form A in CN103648499A were mixed with a mass ratio of 1:1 and stirred in tetrahydrofuran at 5° C., 25° C. and 50° C. at a rate of 500 r/min for 24 h.

[2] = cited from earlier work
[3] = Hygroscopicity assessment by dynamic vapor sorption (DVS); format: physicochemical; settings: 25° C.; for Weight gain under 80% RH: DVS, 10 mg
Method: Dynamic Vapor Sorption (DVS) was measured via Dynamic Vapor Sorption Intrinsic manufacture by SMS's (Surface Measurement Systems Ltd.). Typical Parameters for DVS test were listed below.
Gas and flow rate: N2, 200 mL/min
RH range: 0% RH to 95% RH
Hygroscopicity of 10 mg Form α of the present invention was tested using dynamic vapor sorption (DVS).
About hygroscopicity characterization description and definition of hygroscopicity (Chinese Pharmacopoeia 2010 edition appendix XIXJ Drug hygroscopic test guidelines, test at 25° C.±1, 80% Relative Humidity) • deliquescent: sufficient water is absorbed to form a liquid; • very hygroscopic: increase in mass is equal to or greater than 15 percent; • hygroscopic: increase in mass is less than 15 percent and equal to or greater than 2 percent; • slightly hygroscopic: increase in mass is less than 2 percent and equal to or greater than 0.2 percent; • no or almost no hygroscopic: increase in mass is less than 0.2%.

- Form conversion on stirring ([1]; at 5° C., tetrahydrofuran, 24 h): converted to Form α
SMILES: C[C@H](Nc1ncnc2[nH]cnc12)c1cc2cccc(Cl)c2c(=O)n1-c1ccccc1 [Form A, (S)-3-(1-(9H-purin-6-ylamino)ethyl)-8-chloro-2-phenylisoquinolin-1(2H)-one]

SMILES: C[C@H](Nc1ncnc2[nH]cnc12)c1cc2cccc(Cl)c2c(=O)n1-c1ccccc1 [Form C, (S)-3-(1-(9H-purin-6-ylamino)ethyl)-8-chloro-2-phenylisoquinolin-1(2H)-one]
- Crystallinity after grinding [2]: decrease or turns into amorphous

- Weight gain under 80% RH ([3]; listed as Crystalline Form α of compound of Formula (I)): 0.67%
- Weight gain under 80% RH ([3]; listed as crystalline Form α): 0.67%
SMILES: C[C@H](Nc1ncnc2[nH]cnc12)c1cc2cccc(Cl)c2c(=O)n1-c1ccccc1 [Form α, (S)-3-(1-(9H-purin-6-ylamino)ethyl)-8-chloro-2-phenylisoquinolin-1(2H)-one]
- Hygroscopicity according to hygroscopic test guidelines ([3]; Chinese Pharmacopoeia 2010 definition, 80% Relative Humidity): slightly hygroscopic (increase in mass is less than 2 percent and equal to or greater than 0.2 percent)
- Stability relative to anhydrous Form A in CN103648499A ([1]; conclusion from stirring the mixture at 5° C.): more thermodynamic stable than Form A in CN103648499A; also recorded: more stable than anhydrous Form A in CN103648499A
